target: T1, MRGPRX2 (Homo sapiens, UniProt Q96LB1); assay: MRGPRX2 reporter cell assay (NFAT-RE luciferase, Substance P stimulation); assay type: cell-based; conditions: U2OS cells stably transfected with MRGPRX2 and NFAT-RE luciferase reporter; Substance P at EC80
T1 sequence (Q96LB1 1-330): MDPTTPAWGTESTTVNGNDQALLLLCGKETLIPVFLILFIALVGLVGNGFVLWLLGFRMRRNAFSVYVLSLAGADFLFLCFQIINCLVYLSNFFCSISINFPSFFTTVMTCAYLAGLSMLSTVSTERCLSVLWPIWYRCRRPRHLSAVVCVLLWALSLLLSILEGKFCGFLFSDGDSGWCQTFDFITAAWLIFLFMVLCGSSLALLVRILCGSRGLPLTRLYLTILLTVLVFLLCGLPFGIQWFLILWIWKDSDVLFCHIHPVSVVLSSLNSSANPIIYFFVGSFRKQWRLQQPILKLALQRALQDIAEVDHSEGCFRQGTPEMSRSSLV
Procedure, shortened: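 U2OS cells stably expressing MRGPRX2 and an NFAT-RE luc2P reporter, pre-incubated 30 min at 37° C with compound (0.5% DMSO), then stimulated with Substance P at EC80 for 6 h. Luminescence after ONE-GLO; percent inhibition fitted by four-parameter logistic to IC50.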

Cn1cc(-c2c(-c3c(C(F)F)nn4c3OC[C@@H](F)C4)[nH]c3ncccc23)c(C#N)n1 [EX. 449] and Cn1cc(-c2c(-c3c(C(F)F)nn4c3OC[C@@H](NC(=O)C3CC3)C4)[nH]c3ncccc23)c(OC(F)F)n1 [EX. 559] are within 1.5-fold of each other in IC50: 0.0026 µM for the first, 0.003 µM for the second.

With CCc1nn2c(c1-c1[nH]c3ncccc3c1-c1cn(C)nc1OC(F)F)OC[C@@H](NC(=O)OC)C2 [EX. 572] the IC50 was 0.0036 µM.

same assay, conditions: U2OS cells stably transfected with MRGPRX2 and NFAT-RE luciferase reporter; Substance P at EC80; class symbols

N#Cc1ccccc1-c1c(-c2csnc2C(F)F)[nH]c2ncccc12 [EX. 75] and Cn1cc(-c2[nH]c3ncccc3c2-c2ccccc2C#N)c(C(F)(F)F)n1 [EX. 128] cannot be ordered by IC50: < 0.01 µM for the first, < 0.01 µM for the second.

Cc1nn2c(c1-c1[nH]c3ncccc3c1-c1cccnc1OC(F)F)OC[C@@H](O)C2 [EX. 496] and Cc1nn2c(c1-c1[nH]c3ncccc3c1-c1cccnc1OC(F)F)OC[C@@H](OCCO)C2 [EX. 498] cannot be ordered by IC50: < 0.01 µM for the first, < 0.01 µM for the second.

COC(=O)N[C@@H]1COc2c(-c3[nH]c4ncsc4c3-c3cn(C)nc3OC(F)F)c(C(F)F)nn2C1 [EX. 519] and CCOC(=O)N[C@@H]1COc2c(-c3[nH]c4ncccc4c3-c3cn(C)nc3OC(F)F)c(C(F)F)nn2C1 [EX. 573] cannot be ordered by IC50: < 0.01 µM for the first, < 0.01 µM for the second.

C[C@@]1(O)COc2c(-c3[nH]c4ncccc4c3-c3cccnc3OC(F)F)c(C3CC3)nn2C1 [EX. 440] and CO[C@]1(C)COc2c(-c3[nH]c4ncccc4c3-c3cccnc3OC(F)F)c(C(F)F)nn2C1 [EX. 439] cannot be ordered by IC50: < 0.01 µM for the first, < 0.01 µM for the second.

Cn1cc(-c2c(-c3c(C(F)F)nn4c3OC[C@@H](OC(F)F)C4)[nH]c3ncccc23)c(OC(F)F)n1 [EX. 529] and Cn1cc(-c2c(-c3c(C(F)F)nn4c3OC[C@@H](F)C4)[nH]c3ncccc23)c(OC(F)F)n1 [EX. 434] cannot be ordered by IC50: < 0.01 µM for the first, < 0.01 µM for the second.

Cc1cc(-c2c(-c3c(C)nn4c3OC[C@@H](NC(=O)C3CC3)C4)[nH]c3ncccc23)c(C#N)s1 [EX. 505] and COC(=O)N[C@@H]1COc2c(-c3[nH]c4ncccc4c3-c3cc(C)sc3C#N)c(C)nn2C1 [EX. 494] cannot be ordered by IC50: < 0.01 µM for the first, < 0.01 µM for the second.

N#Cc1ccccc1-c1c(-c2cc(F)ccc2O)[nH]c2ncccc12 [EX. 54] and N#Cc1ccccc1-c1c(-c2ccccc2O)[nH]c2ncccc12 [EX. 122] cannot be ordered by IC50: < 0.01 µM for the first, < 0.01 µM for the second.

COc1ccc(C#N)c(-c2c(-c3c(C)nn4cc(O)cnc34)[nH]c3ncccc23)c1 [EX. 181] and COc1ccc(C#N)c(-c2c(-c3c(C)nn4c3OCCC4)[nH]c3ncccc23)c1 [EX. 227] cannot be ordered by IC50: < 0.01 µM for the first, < 0.01 µM for the second.

Cn1cc(-c2[nH]c3ncccc3c2-c2cc(F)ccc2C#N)c(C(F)F)n1 [EX. 300] and Cn1cc(-c2[nH]c3ncccc3c2-c2cc(Cl)ccc2C#N)c(C(F)F)n1 [EX. 375, 4-chloro-2-[2-[3-(difluoromethyl)-1-methyl-pyrazol-4-yl]-1 H-pyrrolo[2,3-b]pyridin-3-yl]benzonitrile] cannot be ordered by IC50: < 0.01 µM for the first, < 0.01 µM for the second.

O[C@@H]1COc2c(-c3[nH]c4ncccc4c3-c3ccc(F)cc3OC(F)F)c(C(F)F)nn2C1 [EX. 467] and COc1ccc(C#N)c(-c2c(-c3c(C(F)F)nn4c3OC[C@@H](O)C4)[nH]c3ncccc23)c1 [EX. 369] cannot be ordered by IC50: < 0.01 µM for the first, < 0.01 µM for the second.

Cn1cc(-c2c(-c3c(C(F)F)nn4c3OC[C@@](C)(OCCO)C4)[nH]c3ncccc23)c(OC(F)F)n1 [EX. 493] and Cn1cc(-c2c(-c3c(C(F)F)nn4c3OC[C@@](C)(O)C4)[nH]c3ncccc23)c(OC(F)F)n1 [EX. 481] cannot be ordered by IC50: < 0.01 µM for the first, < 0.01 µM for the second.

Cc1ccc(C#N)c(-c2c(-c3c[nH]nc3OC(F)F)[nH]c3ncccc23)c1 [EX. 158] and COc1ccc(C#N)c(-c2c(-c3nn(C)cc3C(F)F)[nH]c3ncccc23)c1 [EX. 281] cannot be ordered by IC50: < 0.01 µM for the first, < 0.01 µM for the second.

C[C@@H](O)CC(=O)N[C@@H]1COc2c(-c3[nH]c4ncccc4c3-c3cn(C)nc3OC(F)F)c(C(F)F)nn2C1 [EX. 555] and CC(=O)N[C@@H]1COc2c(-c3[nH]c4ncccc4c3-c3cn(C)nc3OC(F)F)c(C(F)F)nn2C1 [EX. 544] cannot be ordered by IC50: < 0.01 µM for the first, < 0.01 µM for the second.

COc1nn2cccnc2c1-c1[nH]c2ncccc2c1-c1ccccc1C#N [EX. 141] and [2H]C([2H])([2H])Oc1ccc(C#N)c(-c2c(-c3c(OC)nn4cccnc34)[nH]c3ncccc23)c1 [EX. 175] cannot be ordered by IC50: < 0.01 µM for the first, < 0.01 µM for the second.

Cn1cc(-c2c(-c3c(C(F)F)nn4c3OC[C@@H](F)C4)[nH]c3ncccc23)c(C#N)n1 [EX. 449] and N#Cc1ncccc1-c1c(-c2c(C(F)F)nn3c2OC[C@@H](F)C3)[nH]c2ncccc12 [EX. 424] cannot be ordered by IC50: < 0.01 µM for the first, < 0.01 µM for the second.

COc1ccc(C#N)c(-c2c(-c3c(C(F)F)nn4c3OC[C@H](NC(C)=O)C4)[nH]c3ncccc23)c1 [EX. 362] and COC(=O)N[C@@H]1COc2c(-c3[nH]c4ncccc4c3-c3csnc3OC(F)F)c(C(F)F)nn2C1 [EX. 518] cannot be ordered by IC50: < 0.01 µM for the first, < 0.01 µM for the second.

Cn1cc(-c2c(-c3c(C4CC4)nn4c3OC[C@@H](NS(C)(=O)=O)C4)[nH]c3ncccc23)c(OC(F)F)n1 [EX. 484] and Cc1nn2c(c1-c1[nH]c3ncccc3c1-c1cn(C)nc1OC(F)F)OC[C@@H](NS(C)(=O)=O)C2 [EX. 547] cannot be ordered by IC50: < 0.01 µM for the first, < 0.01 µM for the second.

FC(F)c1nn2c(c1-c1[nH]c3ncccc3c1-c1cnsc1C(F)F)OCCC2 [EX. 416] and FC(F)Oc1nocc1-c1c(-c2c(C(F)F)nn3c2OCCC3)[nH]c2ncccc12 [EX. 407] fall in the same range of IC50: 0.01 to 0.1 µM for the first, 0.01 to 0.1 µM for the second.

CCc1nn2c(c1-c1[nH]c3ncccc3c1-c1cn(C)nc1OC(F)F)OC[C@@H](NC(=O)OC)C2 [EX. 572] and COC(=O)N[C@@H]1COc2c(-c3[nH]c4ncccc4c3-c3cn(C)nc3OC(F)F)c(C)nn2C1 [EX. 546] cannot be ordered by IC50: < 0.01 µM for the first, < 0.01 µM for the second.

Cn1cc(-c2c(-c3c(C(F)F)nn4c3OC[C@@H](NC(=O)[C@H]3C[C@@H](O)C3)C4)[nH]c3ncccc23)c(OC(F)F)n1 [EX. 564] and Cn1cc(-c2c(-c3c(C(F)F)nn4c3OC[C@@H](NC(=O)[C@H]3C[C@H](O)C3)C4)[nH]c3ncccc23)c(OC(F)F)n1 [EX. 565] cannot be ordered by IC50: < 0.01 µM for the first, < 0.01 µM for the second.

Cn1cc(-c2c(-c3c(C(F)F)nn4c3OC[C@@H](NS(=O)(=O)CCO)C4)[nH]c3ncccc23)c(OC(F)F)n1 [EX. 577] and Cn1cc(-c2c(-c3c(C(F)F)nn4c3OC[C@@H](NC(=O)C3CC3)C4)[nH]c3ncccc23)c(OC(F)F)n1 [EX. 559] cannot be ordered by IC50: < 0.01 µM for the first, < 0.01 µM for the second.

Cn1cc(-c2c(-c3c(C(F)F)nn4c3OC[C@@H](N3CCCS3(=O)=O)C4)[nH]c3ncccc23)c(OC(F)F)n1 [EX. 580] and Cn1cc(-c2c(-c3c(C(F)F)nn4c3OC[C@@H](NC(=O)[C@H]3C[C@@](C)(O)C3)C4)[nH]c3ncccc23)c(OC(F)F)n1 [EX. 563] cannot be ordered by IC50: < 0.01 µM for the first, < 0.01 µM for the second.

[2H]c1cnc2[nH]c(-c3c(C)nn4c3OCC4)c(-c3cc(OC([2H])([2H])[2H])ccc3C#N)c2c1 [EX. 218] and COc1nsc(OC)c1-c1[nH]c2ncccc2c1-c1ccccc1C#N [EX. 137] cannot be ordered by IC50: < 0.01 µM for the first, < 0.01 µM for the second.

N#Cc1nscc1-c1c(-c2c(C(F)F)nn3c2OCCC3)[nH]c2ncccc12 [EX. 403] and Cc1cc(-c2c(-c3c(C(F)F)nn4c3OC[C@@](C)(O)C4)[nH]c3ncccc23)c(C#N)s1 [EX. 451] cannot be ordered by IC50: < 0.01 µM for the first, < 0.01 µM for the second.

COc1ccc(F)c(-c2c(-c3cc(F)ccc3OC)[nH]c3ncccc23)c1 [EX. 345] and N#Cc1ccccc1-c1c(-c2cnn3c2OCCC3)[nH]c2ncccc12 [EX. 50] cannot be ordered by IC50: < 0.01 µM for the first, < 0.01 µM for the second.

Cn1cc(-c2c(-c3c(C(F)F)nn4c3OC[C@@H](OCC(C)(C)O)C4)[nH]c3ncccc23)c(C#N)n1 [EX. 501] and Cc1nn2c(c1-c1[nH]c3ncccc3c1-c1cccnc1OC(F)F)OC[C@@H](NC(=O)C1CC1)C2 [EX. 594, (S)—N-(3-(3-(2-(difluoromethoxy)pyridin-3-yl)-1H-pyrrolo[2,3-b]pyridin-2-yl)-2-methyl-6,7-dihydro-5H-pyrazolo[5,1-b] [1,3]oxazin-6-yl) cyclopropanecarboxamide] cannot be ordered by IC50: < 0.01 µM for the first, < 0.01 µM for the second.
